Assay results from patent US20250296939A1, “BENZOTHIOPHENE COMPOUND” (Kyoto Pharmaceutical Industries, Ltd., priority 2022, published 2025).

Columns and labels:
[1] = system: NQO1 activity in rat kidney; experiment: NQO1 activity assay in rat kidney (single administration); format: in vivo; conditions: SD rats (male), oral 3 mg/kg single administration; for NQO1 activity 24 hr later: 24 hr after administration; for NQO1 activity 48 hr later: 48 hr after administration
Protocol: Experimental Example 3: NQO1 Activity Assay in Rat Kidney (Single Administration)
The test compound solution for administration was prepared by dissolving or suspending the test compound in 0.5 w/v % methylcellulose solution.
The test compound was administered orally (3 mg/kg, 2 mL/kg) to SD rats (male, Japan SLC). The solvent group was used as a control group. The test compound group was anesthetized with isoflurane 24 and 48 hr after administration, and the control group was anesthetized with isoflurane 24 hr after administration, and the rats were euthanized by abdominal aortotomy with blood release. The right kidney was immediately removed, and the renal cortex and medullary portion of the kidney were cut out for measurement of NQO1 activity.
Homogenization buffer (10 mM Tris-HCl, 250 mM sucrose, pH 7.4) and assay buffer (25 mM Tris-HCl, 0.7 mg/mL BSA, pH 7.4) were prepared.
1 mL of homogenization buffer was added to the collected kidney samples, and the organs were homogenized uniformly in ice using a Polytron homogenizer (PHYSCOTRON, Microtec Co. Ltd.) or TissueLyser II (QIAGEN). Homogenized samples were centrifuged (MX-305, TOMY) at 9000×g for 20 minutes at 4° C. The supernatant was then scalped with homogenization buffer to approximately 2 ml and ultracentrifuged (centrifuge; OptimaL-100XP, rotor; 50.4 Ti, Beckman Coulter) at 100,000×g for 60 min at 4° C. The protein concentration of the supernatant was measured with the Protein Assay BCA kit (#06385-00, Nacalai Tesque), and samples were diluted to 5 μg protein/30 μL with homogenization buffer. 2,6-Dichlorophenolindophenol (DCPIP) reaction buffer (assay buffer with 200 μM NADPH and 160 μM DCPIP, containing 1/1000 volume of DMSO or 20 μM dicoumarol DMSO solution) was prepared immediately before the measurement.
The 230 μL of each concentration of calibration solution was added to a 96-well plate (CORNING, 9017). To 30 μL of the sample solution was added 200 μL of DMSO-containing DCPIP reaction buffer or dicoumarol-containing DCPIP reaction buffer. The absorbance at 600 nm was immediately measured on a SpectraMax PLUS384 (Molecular devices) at 1 minute intervals for 10 minutes. […] A regression line was used to create the calibration curve.
The difference between the DCPIP decrease in the wells with DMSO-containing DCPIP reaction buffer and the DCPIP decrease in the wells with dicoumarol-containing DCPIP reaction buffer was divided by the amount of protein (mg) and time (min) to obtain NQO1 activity (nmol/mg/min). In Table 4 below, the NQO1 activity of the test compound-administered groups is expressed as a percentage of the control group.

[2] = system: NQO1 activity in Hepa1c1c7 cells; experiment: NAD(P)H: quinone oxidoreductase-1 (NQO1) enzyme induction assay (in vitro); format: cell-based, mouse; conditions: Mus musculus, Hepa-1c1c7, NQO1 activity upon addition of 400 nM of test compound, about 48 hr, ratio from the base without the compound
How it was run: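 Mouse Hepa1c1c7 hepatoma cells were treated with 400 nM compound for about 48 h, then lysed with digitonin/EDTA. NQO1 activity was measured as menadione-mediated MTT reduction with a G6P/G6PDH NADPH-regenerating system, stopped with dicoumarol, and read at A610. Values are the activity ratio versus untreated base wells.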

[3] = molecular target: GST-fused human Keap1 (amino acid residues: 325-642) protein (Homo sapiens (Human), UniProt Q14145); experiment: FP assay (in vitro): inhibition of binding between Nrf2 and Keap1 by fluorescence polarization; conditions: 20 nM GST-fused human Keap1, 10 nM FITC-labeled Nrf2 peptide, 2 hr at room temperature
Sequence of GST-fused human Keap1 (amino acid residues: 325-642) protein (Q14145 325-624 limits assumed): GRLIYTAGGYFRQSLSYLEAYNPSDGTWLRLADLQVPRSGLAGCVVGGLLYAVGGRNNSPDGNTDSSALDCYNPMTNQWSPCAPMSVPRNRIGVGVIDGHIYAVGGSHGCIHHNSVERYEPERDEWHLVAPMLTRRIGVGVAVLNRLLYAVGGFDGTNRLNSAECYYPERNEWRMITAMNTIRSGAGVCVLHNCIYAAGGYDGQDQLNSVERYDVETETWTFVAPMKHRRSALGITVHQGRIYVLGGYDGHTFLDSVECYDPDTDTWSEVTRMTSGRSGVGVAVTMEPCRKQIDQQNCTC

Row | SMILES | NQO1 activity 24 hr later [1] | NQO1 activity 48 hr later [1] | fold induction at 0.4 µM [2] | IC50 [3] [µM]
1 | Cc1c([C@H](CC(=O)O)c2cc(CN3Cc4nc(O)ccc4O[C@H](C4CC4)C3)c3sccc3c2)ccc2c1nnn2C [Example 5, (3R)-3-(7-{[(2R)-2-Cyclopropyl-7-hydroxy-2,3-dihydropyrido[2,3-f][1,4]oxazepin-4(5H)-yl]methyl}-1-benzothiophen-5-yl)-3-(1,4-dimethyl-1H-benzotriazol-5-yl)propanoic acid] | 9.4 percentage of the control group | 10.9 percentage of the control group | > 5 | 0.01 to 0.03
2 | CC[C@@H]1CN(Cc2cc([C@@H](c3ccc4c(nnn4C)c3C)C(C)(C)C(=O)O)cc3ccsc23)Cc2nc(O)ccc2O1 [Example 11, (3S)-3-(1,4-Dimethyl-1H-benzotriazol-5-yl)-3-(7-{[(2R)-2-ethyl-7-hydroxy-2,3-dihydropyrido[2,3-f][1,4]oxazepin-4(5H)-yl]methyl}-1-benzothiophen-5-yl)-2,2-dimethylpropanoic acid] | 9.3 percentage of the control group | 11.0 percentage of the control group | > 5 | ≤ 0.01
3 | Cc1c([C@H](c2cc(CN3Cc4nc(O)ccc4OC4(CC4)C3)c3sccc3c2)C(C)(C)C(=O)O)ccc2c1nnn2C [Example 13, (3S)-3-(1,4-Dimethyl-1H-benzotriazol-5-yl)-3-{7-[(7′-hydroxy-3′H-spiro[cyclopropane-1,2′-pyrido[2,3-f][1,4]oxazepin]-4′(5′H)-yl)methyl]-1-benzothiophen-5-yl}-2,2-dimethylpropanoic acid] | 6.5 percentage of the control group | 11.7 percentage of the control group | > 5 | 0.01 to 0.03
